This is an account of results in patent US20260022142A1, “MACROCYCLIC IMMUNOMODULATORS” (Bristol-Myers Squibb Company, priority 2022, published 2026).

Numbered stars: 1 amine (or outer) side, 2 acyl side, 3 side chain; on linkers, the order of the positions; unused ones are H or OH. Bridge positions count the residues as written; N and C are the ends. Square brackets hold non-standard residues; d marks the D form. Peptide text beside a SMILES is read from it. * marks the point of attachment. ξ: configuration not given here. Phe(3-CF3) = N[C@@H](Cc1cccc(C(F)(F)F)c1)C(=O)O; Ala(morpholin-4-yl) = N[C@@H](CN1CCOCC1)C(=O)O; Phe(4-COOH) = N[C@@H](Cc1ccc(C(=O)O)cc1)C(=O)O; X3 = CC(C)(F)C(=N)NCCC[C@H](N[*:1])C(=O)[*:2]; Bip = N[C@@H](Cc1ccc(-c2ccccc2)cc1)C(=O)O; Abu(4,4,4-F3) = N[C@@H](CC(F)(F)F)C(=O)O; Phe(4-CN) = N#Cc1ccc(C[C@H](N)C(=O)O)cc1; NH(CH2)14COOH = O=C(O)CCCCCCCCCCCCCCN*; Phe(3-Me) = Cc1cccc(C[C@H](N)C(=O)O)c1; Phe(4-F) = N[C@@H](Cc1ccc(F)cc1)C(=O)O; NH(CH2)12COOH = O=C(O)CCCCCCCCCCCCN*; Val(3-OH) = CC(C)(O)[C@H](N)C(=O)O; hArg = N=C(N)NCCCC[C@H](N)C(=O)O; 4Pal = N[C@@H](Cc1ccncc1)C(=O)O; Cha = N[C@@H](CC1CCCCC1)C(=O)O; Cit = NC(=O)NCCC[C@H](N)C(=O)O; dCha = N[C@H](CC1CCCCC1)C(=O)O; Thr(3ξ) = CC(O)[C@H](N)C(=O)O; PEG4 = NCCOCCOCCOCCOCCC(=O)O; Carboxymethyl = O=C(O)C*; Orn = NCCC[C@H](N)C(=O)O; Aun = NCCCCCCCCCCC(=O)O; Dab = NCC[C@H](N)C(=O)O; Dap = NC[C@H](N)C(=O)O; AEEA = NCCOCCOCC(=O)O

Broadly, the IC50 is the midpoint of a concentration-inhibition curve.

T1 sequence (Q15116 25-288): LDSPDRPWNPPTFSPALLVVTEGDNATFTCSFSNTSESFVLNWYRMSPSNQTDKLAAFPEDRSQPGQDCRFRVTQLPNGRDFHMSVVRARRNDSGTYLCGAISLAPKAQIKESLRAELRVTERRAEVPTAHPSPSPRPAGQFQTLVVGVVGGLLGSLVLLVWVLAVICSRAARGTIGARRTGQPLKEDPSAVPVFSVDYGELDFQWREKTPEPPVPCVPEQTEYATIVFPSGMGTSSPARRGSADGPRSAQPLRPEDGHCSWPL

The assay has as its target T1, PD-1/PD-L1 interaction (PE-labeled human PD-L1-Ig binding to Jurkat cell line over-expressing human PD-1) (Homo sapiens, UniProt Q15116).
T1 construct: expressed in transfected cells; host or cells: Jurkat
The experiment in a line: Jurkat-PD-1 Cell Binding High-Content Screening Assay (CBA). In kind it is cell-based. The following applies: Jurkat cell line over-expressing human PD-1; PE-labeled PD-L1-Ig 20 nM final; read-out: Jurkat hPD1-PDL1 IC50. The procedure, abridged:
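Jurkat cells over-expressing human PD-1 (8×10^3 per well, DMEM/10% FCS) preincubated with compound 2 h at 37° C, then PE-labeled human PD-L1-Ig (20 nM final) added for 1 h. Cells fixed with paraformaldehyde, Hoechst-stained, and bound fluorescence quantified by high-content imaging.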
Consider `Cc1cccc(C[C@@H]2NC(=O)[C@H](CC(=O)O)NC(=O)[C@H](Cc3ccc(OCC(=O)O)cc3)NC(=O)[C@H](Cc3ccc(C#N)cc3)NC(=O)CSC[C@@H](C(=O)N[C@@H](CCN)C(=O)NCCCCCCCCCCC(=O)O)NC(=O)[C@H](CO)NC(=O)[C@H](C(C)(C)O)NC(=O)[C@H](CC3CCCCC3)NC(=O)[C@H](CCN)NC(=O)[C@@H](CC(C)C)NC(=O)[C@H](CCCN)NC(=O)[C@H](Cc3ccc(OCC(=O)O)cc3)NC(=O)[C@H](Cc3ccc(-c4ccccc4)cc3)NC(=O)[C@H](Cc3ccc(OCC(=O)O)cc3)NC2=O)c1` [Compound 2183] ({CH2CO}-[Phe(4-CN)]Y(Carboxymethyl)D[Phe(3-Me)]Y(Carboxymethyl)[Bip]Y(Carboxymethyl)[Orn][dL][Dab][Cha][Val(3-OH)]SC[Dab][Aun]-OH; thioether N-14), for which the IC50 was found to be 13.3 nM.
With `Cc1cccc(C[C@@H]2NC(=O)[C@H](CC(=O)O)NC(=O)[C@H](Cc3ccc(OCC(=O)O)cc3)NC(=O)[C@H](CN)NC(=O)CSC[C@@H](C(=O)N[C@@H](CCCCN)C(=O)NCCCCCCCCCCC(=O)O)NC(=O)[C@H](CCCN)NC(=O)[C@H](C(C)C)NC(=O)[C@H](CC3CCCCC3)NC(=O)[C@H](CCN)NC(=O)[C@@H](CC3CCCCC3)NC(=O)[C@H](CCCN)NC(=O)[C@H](C(C)C)NC(=O)[C@H](Cc3ccc(-c4ccccc4)cc3)NC(=O)[C@H](C(C)C)NC2=O)c1` [Compound 2688] ({CH2CO}-[Dap]Y(Carboxymethyl)D[Phe(3-Me)]V[Bip]V[Orn][dCha][Dab][Cha]V[Orn]CK[Aun]-OH; thioether N-14) the figure was 15.6 nM.
With `CC(C)C[C@H]1NC(=O)[C@H](CCCN)NC(=O)[C@H](Cc2ccc(O)cc2)NC(=O)[C@H](Cc2ccc(-c3ccccc3)cc2)NC(=O)[C@H](C(C)C)NC(=O)[C@H](Cc2c[nH]c3ccccc23)NC(=O)[C@H](CC(=O)O)NC(=O)[C@H](Cc2ccc(OCC(=O)O)cc2)NC(=O)[C@H](Cc2ccncc2)NC(=O)CSC[C@@H](C(=O)N[C@@H](CCN)C(=O)NCCCCCCCCCCC(=O)O)NC(=O)[C@H](CCCN)NC(=O)[C@H](C(C)C)NC(=O)[C@H](CC2CCCCC2)NC(=O)[C@H](CCN)NC1=O` [Compound 2702] ({CH2CO}-[4Pal]Y(Carboxymethyl)DWV[Bip]Y[Orn][dL][Dab][Cha]V[Orn]C[Dab][Aun]-OH; thioether N-14) the figure was 25.7 nM; with `Cc1cccc(C[C@@H]2NC(=O)[C@H](CC(=O)O)NC(=O)[C@H](Cc3ccc(OCC(=O)O)cc3)NC(=O)[C@H](C(C)O)NC(=O)CSC[C@@H](C(=O)N[C@@H](C)C(=O)N[C@@H](CCN)C(=O)NCCCCCCCCCCC(=O)O)NC(=O)[C@H](C(C)O)NC(=O)[C@H](C(C)C)NC(=O)[C@H](CC3CCCCC3)NC(=O)[C@H](CCN)NC(=O)[C@@H](CC(C)C)NC(=O)[C@H](CCCN)NC(=O)[C@H](C(C)C)NC(=O)[C@H](Cc3ccc(-c4ccccc4)cc3)NC(=O)[C@H](C(C)C)NC2=O)c1` (stereo partly drawn) [Compound 3020] ({CH2CO}-[Thr(3ξ)]Y(Carboxymethyl)D[Phe(3-Me)]V[Bip]V[Orn][dL][Dab][Cha]V[Thr(3ξ)]CA[Dab][Aun]-OH; thioether N-14), 12 nM.
The value for `CC(C)C[C@H]1NC(=O)[C@H](CCCN)NC(=O)[C@H](Cc2ccc(O)cc2)NC(=O)[C@H](Cc2ccc(-c3ccccc3)cc2)NC(=O)[C@H](C(C)C)NC(=O)[C@H](Cc2c[nH]c3ccccc23)NC(=O)[C@H](CC(=O)O)NC(=O)[C@H](Cc2ccc(OCC(=O)O)cc2)NC(=O)[C@H](CCCNC(=N)N)NC(=O)CSC[C@@H](C(=O)NCCOCCOCC(=O)NCCCCCCCCCCC(=O)O)NC(=O)[C@H](C(C)O)NC(=O)[C@H](C(C)C)NC(=O)[C@H](CC2CCCCC2)NC(=O)[C@H](CCN)NC1=O` (stereo partly drawn) [Compound 3393] ({CH2CO}-RY(Carboxymethyl)DWV[Bip]Y[Orn][dL][Dab][Cha]V[Thr(3ξ)]C[AEEA][Aun]-OH; thioether N-14) was 12.8 nM; that for `Cc1cccc(C[C@@H]2NC(=O)[C@H](CC(=O)O)NC(=O)[C@H](Cc3ccc(OCC(=O)O)cc3)NC(=O)[C@H](CCCCNC(=N)N)NC(=O)CSC[C@@H](C(=O)N[C@@H](CCN)C(=O)NCCCCCCCCCCC(=O)O)NC(=O)[C@H](C(C)O)NC(=O)[C@H](C(C)C)NC(=O)[C@H](CC3CCCCC3)NC(=O)[C@H](CCN)NC(=O)[C@@H](CC(C)C)NC(=O)[C@H](CCCN)NC(=O)[C@H](CCCNC(=N)C(C)(C)F)NC(=O)[C@H](Cc3ccc(-c4ccccc4)cc3)NC(=O)[C@H](Cc3ccc(O)cc3)NC2=O)c1` (stereo partly drawn) [Compound 3579] ({CH2CO}-[hArg]Y(Carboxymethyl)D[Phe(3-Me)]Y[Bip][X3][Orn][dL][Dab][Cha]V[Thr(3ξ)]C[Dab][Aun]-OH; thioether N-14) was 18.2 nM.
With `Cc1cccc(C[C@@H]2NC(=O)[C@H](CC(=O)O)NC(=O)[C@H](Cc3ccc(OCC(=O)O)cc3)NC(=O)[C@H](CN)NC(=O)CSC[C@@H](C(=O)N[C@@H](CCN)C(=O)NCCOCCOCC(=O)NCCCCCCCCCCC(=O)O)NC(=O)[C@H](CO)NC(=O)[C@H](Cc3ccc(O)cc3)NC(=O)[C@H](CC3CCCCC3)NC(=O)[C@H](CCN)NC(=O)[C@@H](CC(C)C)NC(=O)[C@H](CCCN)NC(=O)[C@H](Cc3ccc(O)cc3)NC(=O)[C@H](Cc3ccc(-c4ccccc4)cc3)NC(=O)[C@H](Cc3ccc(O)cc3)NC2=O)c1` [Compound 2570] ({CH2CO}-[Dap]Y(Carboxymethyl)D[Phe(3-Me)]Y[Bip]Y[Orn][dL][Dab][Cha]YSC[Dab][AEEA][Aun]-OH; thioether N-14), the IC50 stood at 31.9 nM.
`CC(C)C[C@H]1NC(=O)[C@H](CCCN)NC(=O)[C@H](CCCNC(N)=O)NC(=O)[C@H](Cc2ccc(-c3ccccc3)cc2)NC(=O)[C@H](C(C)C)NC(=O)[C@H](Cc2c[nH]c3ccccc23)NC(=O)[C@H](CC(=O)O)NC(=O)[C@H](Cc2ccc(OCC(=O)O)cc2)NC(=O)[C@H](CN)NC(=O)CSC[C@@H](C(=O)NCCOCCOCC(=O)N[C@@H](CCN)C(=O)NCCCCCCCCCCC(=O)O)NC(=O)[C@H](CCCCN)NC(=O)[C@H](C(C)C)NC(=O)[C@H](CC2CCCCC2)NC(=O)[C@H](CCN)NC1=O` [Compound 2625] ({CH2CO}-[Dap]Y(Carboxymethyl)DWV[Bip][Cit][Orn][dL][Dab][Cha]VKC[AEEA][Dab][Aun]-OH; thioether N-14): the IC50 was determined as 16.7 nM.
In the case of `Cc1cccc(C[C@@H]2NC(=O)[C@H](CC(=O)O)NC(=O)[C@H](Cc3ccc(OCC(=O)O)cc3)NC(=O)[C@H](CCCNC(=N)N)NC(=O)CSC[C@@H](C(=O)N[C@H](CC(N)=O)C(=O)NCCCCCCCCCCC(=O)O)NC(=O)[C@H](C(C)O)NC(=O)[C@H](C(C)O)NC(=O)[C@H](CC3CCCCC3)NC(=O)[C@H](CCN)NC(=O)[C@@H](CC(C)C)NC(=O)[C@H](CCCN)NC(=O)[C@H](Cc3ccc(OCC(=O)O)cc3)NC(=O)[C@H](Cc3ccc(-c4ccccc4)cc3)NC(=O)[C@H](Cc3ccc(O)cc3)NC2=O)c1` (stereo partly drawn) [Compound 3524] ({CH2CO}-RY(Carboxymethyl)D[Phe(3-Me)]Y[Bip]Y(Carboxymethyl)[Orn][dL][Dab][Cha][Thr(3ξ)][Thr(3ξ)]C[dN][Aun]-OH; thioether N-14), the IC50 worked out at 40.8 nM.
With `CC(C)C[C@H]1NC(=O)[C@H](Cc2cnc[nH]2)NC(=O)[C@H](Cc2ccc(C(=O)O)cc2)NC(=O)[C@H](Cc2ccc(-c3ccccc3)cc2)NC(=O)[C@H](Cc2ccc(C(=O)O)cc2)NC(=O)[C@H](Cc2cccc(C(F)(F)F)c2)NC(=O)[C@H](CC(=O)O)NC(=O)[C@H](Cc2ccc(OCC(=O)O)cc2)NC(=O)[C@H](CC(F)(F)F)NC(=O)CSC[C@@H](C(=O)N[C@@H](CCN)C(=O)NCCCCCCCCCCCCC(=O)O)NC(=O)[C@H](CO)NC(=O)[C@H](C(C)(C)O)NC(=O)[C@H](CC2CCCCC2)NC(=O)[C@H](CCN)NC1=O` [Compound 3857] ({CH2CO}-[Abu(4,4,4-F3)]Y(Carboxymethyl)D[Phe(3-CF3)][Phe(4-COOH)][Bip][Phe(4-COOH)]H[dL][Dab][Cha][Val(3-OH)]SC[Dab]-{NH(CH2)12COOH}; thioether N-14) the figure was 166 nM; with `Cc1cccc(C[C@@H]2NC(=O)[C@H](CC(=O)O)NC(=O)[C@H](Cc3ccc(OCC(=O)O)cc3)NC(=O)[C@H](CN)NC(=O)CSC[C@@H](C(=O)N[C@@H](CCN)C(=O)NCCOCCOCC(=O)NCCCCCCCCCCC(=O)O)NC(=O)[C@H](CCCN)NC(=O)[C@H](C(C)C)NC(=O)[C@H](CC3CCCCC3)NC(=O)[C@H](CCN)NC(=O)[C@@H](CC(C)C)NC(=O)[C@H](CCCN)NC(=O)[C@H](Cc3ccc(F)cc3)NC(=O)[C@H](Cc3ccc(-c4ccccc4)cc3)NC(=O)[C@H](Cc3ccc(O)cc3)NC2=O)c1` [Compound 2049] ({CH2CO}-[Dap]Y(Carboxymethyl)D[Phe(3-Me)]Y[Bip][Phe(4-F)][Orn][dL][Dab][Cha]V[Orn]C[Dab][AEEA][Aun]-OH; thioether N-14), 16.9 nM.
With `CC(C)C[C@H]1NC(=O)[C@H](CCCN)NC(=O)[C@H](Cc2ccc(C(=O)O)cc2)NC(=O)[C@H](Cc2ccc(-c3ccccc3)cc2)NC(=O)[C@H](Cc2ccc(C(=O)O)cc2)NC(=O)[C@H](Cc2cccc(C(F)(F)F)c2)NC(=O)[C@H](CC(=O)O)NC(=O)[C@H](Cc2ccc(OCC(=O)O)cc2)NC(=O)[C@H](CN2CCOCC2)NC(=O)CSC[C@@H](C(=O)N[C@@H](CCN)C(=O)NCCOCCOCCOCCOCCC(=O)NCCCCCCCCCCCCCCC(=O)O)NC(=O)[C@H](CO)NC(=O)[C@H](C(C)(C)O)NC(=O)[C@H](CC2CCCCC2)NC(=O)[C@H](CCN)NC1=O` [Compound 2917] ({CH2CO}-[Ala(morpholin-4-yl)]Y(Carboxymethyl)D[Phe(3-CF3)][Phe(4-COOH)][Bip][Phe(4-COOH)][Orn][dL][Dab][Cha][Val(3-OH)]SC[Dab][PEG4]-{NH(CH2)14COOH}; thioether N-14) the figure was 135 nM.
